Columns and labels:
b-Galactosidase = molecular target: T1, b-Galactosidase (Homo sapiens, UniProt P16278); experiment: In vitro inhibition of lysosomal b-galactosidase (4-MU substrate, purified enzyme from spleen); type: biochemical; conditions: Table 3, read-out: Apparent in vitro IC50 value, A b-Galactosidase
T1 construct: measured with appropriate 4-MU substrates using purified enzymes from spleen; from tissue; host or cells: spleen
T1 sequence (P16278 29-677): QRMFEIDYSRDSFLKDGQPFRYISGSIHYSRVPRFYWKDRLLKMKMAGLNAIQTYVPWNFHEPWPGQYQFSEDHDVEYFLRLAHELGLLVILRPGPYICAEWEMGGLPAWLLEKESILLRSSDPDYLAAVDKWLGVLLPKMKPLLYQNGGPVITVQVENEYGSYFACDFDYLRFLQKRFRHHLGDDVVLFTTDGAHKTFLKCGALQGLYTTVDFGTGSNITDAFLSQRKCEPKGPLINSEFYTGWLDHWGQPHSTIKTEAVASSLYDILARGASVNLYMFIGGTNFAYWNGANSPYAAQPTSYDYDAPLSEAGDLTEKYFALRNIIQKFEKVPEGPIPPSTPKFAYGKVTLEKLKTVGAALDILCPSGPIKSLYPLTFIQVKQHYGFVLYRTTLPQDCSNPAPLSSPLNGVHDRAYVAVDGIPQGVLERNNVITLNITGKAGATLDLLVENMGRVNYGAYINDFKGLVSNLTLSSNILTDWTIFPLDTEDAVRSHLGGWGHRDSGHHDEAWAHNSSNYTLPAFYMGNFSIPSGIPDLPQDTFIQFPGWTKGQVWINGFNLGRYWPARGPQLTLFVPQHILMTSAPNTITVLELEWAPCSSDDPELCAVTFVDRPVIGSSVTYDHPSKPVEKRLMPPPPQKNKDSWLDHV

[1] = molecular target: T2, lysosomal alfa-glucosidase (Homo sapiens, UniProt P10253); experiment: In vitro inhibition of lysosomal alfa-glucosidase (4-MU substrate, purified enzyme from spleen); type: biochemical; conditions: Table 3, read-out: Apparent in vitro IC50 value, a-Glucosidase
T2 construct: measured with appropriate 4-MU substrates using purified enzymes from spleen; from tissue; host or cells: spleen

[2] = system: glycosphingolipid synthesis; conditions: 100 mg TID, Gaucher patients; cited from earlier work
Hexosaminidase = experiment: In vitro inhibition of lysosomal hexosaminidase (4-MU substrate, purified enzyme from spleen); type: biochemical; conditions: Table 3, read-out: Apparent in vitro IC50 value, Hexosaminidase
Metabolism = conditions: in vivo
Cellular toxicity = type: cell-based; conditions: at doses envisioned during therapy
Maltase = experiment: In vitro inhibition of intestinal maltase; type: biochemical; conditions: Table 1
Bioavailability = type: in vivo; conditions: orally administered
human melanocytes = experiment: Pigmentation / melanin production in melanocytes; type: cell-based; conditions: melanocytes of lighter and darker skin type, within a single culture passage
Description: Iminosugars were designed that harbour optimal features for use in skin. Ceramide and glucosylceramide are important structural components of the stratum corneum and regulate water permeability of the skin. It is known that glucosylceramides together with other polar lipids are secreted into the extracellular space of the stratum corneum by lamellar bodies and are subsequently processed to ceramides. […] Iminosugars should therefore not interfere with the crucial generation of ceramide from glucosylceramide catalysed by lysosomal glucocerebrosidase.
The pharmaceutical application of the deoxynojirimycin analogues according to the invention and will be in post-inflammatory hyperpigmentation and skin inflammatory conditions. There is strong evidence that when administered systemically these deoxynojirimycin analogues have strong anti-inflammatory activity in vivo.

A-Galactosidase = molecular target: T3, A-Galactosidase (Homo sapiens, UniProt P06280); experiment: In vitro inhibition of lysosomal A-galactosidase (4-MU substrate, purified enzyme from spleen); type: biochemical; conditions: Table 3, read-out: Apparent in vitro IC50 value, A-Galactosidase
T3 construct: measured with appropriate 4-MU substrates using purified enzymes from spleen; from tissue; host or cells: spleen
T3 sequence (P06280 32-429): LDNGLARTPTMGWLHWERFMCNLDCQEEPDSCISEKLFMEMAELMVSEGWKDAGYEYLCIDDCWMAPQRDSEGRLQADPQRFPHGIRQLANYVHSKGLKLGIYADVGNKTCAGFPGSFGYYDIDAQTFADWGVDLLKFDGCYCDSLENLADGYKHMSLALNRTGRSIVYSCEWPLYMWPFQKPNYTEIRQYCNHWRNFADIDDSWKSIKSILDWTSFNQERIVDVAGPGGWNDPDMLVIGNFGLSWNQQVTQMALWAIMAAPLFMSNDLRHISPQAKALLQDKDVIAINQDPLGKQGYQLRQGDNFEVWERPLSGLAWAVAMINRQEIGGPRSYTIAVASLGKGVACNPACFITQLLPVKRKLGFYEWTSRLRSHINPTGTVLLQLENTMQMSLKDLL

MEB4 culture = experiment: Pigmentation of MEB4 melanoma culture; type: cell-based, murine; conditions: inhibition of glycosphingolipid synthesis in MEB4 culture
Description: Two melanoma cultures, one dark pigmented (An) and the other very lightly pigmented (M14) show a clearly higher content of glucosylceramide (GlcCer) in the darkly pigmented culture both in the total cell extract and in a melanosomal fraction.

Metabolism (Metabolism)	Compound	IC50 (b-Galactosidase)	IC50 [1]	Inhibition of glycosphingolipid synthesis [2]	IC50 (Hexosaminidase)	Cellular toxicity (Cellular toxicity)	IC50 (Maltase)	Bioavailability (Bioavailability)	Pigmentation / melanin production in melanocytes (human melanocytes)	Pigmentation / melanin production in melanocytes (human melanocytes; listed as ido-N-(5-adamantane-1-yl-methoxy-pentyl)deoxynojirimycin)	IC50 (A-Galactosidase)	Pigmentation of MEB4 culture (MEB4 culture)
	CCCCN1C[C@H](O)[C@@H](O)[C@H](O)[C@H]1CO [N-butyl-deoxynojirimycin, reference compound]	> 100 µM	0.8 µM	20-30%	> 100 µM							
metabolically inert	OC[C@@H]1[C@@H](O)[C@H](O)[C@@H](O)CN1CCCCCOCC12CC3CC(CC(C3)C1)C2 [N-(5-adamantane-1-yl-methoxy-pentyl)deoxynojirimycin, reference compound]					no intrinsic cellular toxicity	> 25 µM	highly bioavailable				
	OC[C@@H]1[C@H](O)[C@H](O)[C@H](O)CN1CCCCCOCC12CC3CC(CC(C3)C1)C2 [N-(adamantane-1-yl-methoxypentyl)-L-ido-deoxynojirimycin]	> 100 µM			> 100 µM	no cellular toxicity	> 100 µM	well bioavailable	reduce melanin production	significant decrease in pigmentation	> 100 µM	loss of pigmentation

— patent US7528153B2, “Deoxynojirimycin analogues and their uses as glucosylceramidase inhibitors” (Genzyme Corporation, priority 2003, dated 2009)
